This is an account of results in US11702404B2, “GLP-1R modulating compounds” (priority 2019, dated 2023).

SMILES strings stand for the structures. Like-named read-outs stand apart in the source and are kept apart here.

Data set [1] concerns the target GLP-1R (Homo sapiens, UniProt P43220). Kind of data set: GLP-1R activation: cAMP increase in CHO cells stably expressing GLP-1R. Type of data set: cell-based.
Data set [2] in a line: Microsomal stability, human liver microsomes (predicted hepatic clearance). The note with it: predicted from in vitro microsomal stability data.
Setting [3] is: cAMP increase, CHO cells stably expressing GLP-1R, 10 point dose response, 30 minutes incubation, read-out: EC50.

Sequence of GLP-1R (P43220 24-463): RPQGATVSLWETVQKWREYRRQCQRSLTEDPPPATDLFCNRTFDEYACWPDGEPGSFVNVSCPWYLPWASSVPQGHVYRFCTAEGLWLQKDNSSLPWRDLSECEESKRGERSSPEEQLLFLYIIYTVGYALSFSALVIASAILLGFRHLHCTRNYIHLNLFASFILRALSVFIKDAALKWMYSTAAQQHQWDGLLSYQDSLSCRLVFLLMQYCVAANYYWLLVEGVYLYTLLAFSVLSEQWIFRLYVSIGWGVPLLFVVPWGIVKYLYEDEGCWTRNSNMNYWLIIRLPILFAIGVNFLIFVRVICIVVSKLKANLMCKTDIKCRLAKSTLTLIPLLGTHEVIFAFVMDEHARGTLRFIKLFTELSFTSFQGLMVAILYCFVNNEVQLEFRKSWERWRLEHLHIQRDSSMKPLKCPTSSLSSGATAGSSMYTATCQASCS

What is called EC50 is the concentration at which the effect is half-maximal. As to `N#CCC1(Cn2c(Cc3ccc(-c4cccc(OCc5ccc(C#N)cc5F)n4)cc3F)nc3c(F)cc(C(=O)O)cc32)CC1` [Example 296, 2-(4-(6-((4-cyano-2-fluorobenzyl)oxy)pyridin-2-yl)-2-fluorobenzyl)-1-((1-(cyanomethyl)cyclopropyl)methyl)-4-fluoro-1H-benzo[d]imidazole-6-carboxylic acid], the EC50 in data set [1] (setting [3]) turned out to be 0.08 nM. The “Predicted Hepatic Clearance (Pred. Cl.)” value in data set [2] is 5.33 mL/min/kg.

`N#Cc1ccc(COc2cccc(-c3ccc(Cc4nc5c(F)cc(C(=O)O)cc5n4CC4(C(F)F)CC4)c(F)c3)n2)c(F)c1` [Example 297, 2-(4-(6-((4-cyano-2-fluorobenzyl)oxy)pyridin-2-yl)-2-fluorobenzyl)-1-((1-(difluoromethyl)cyclopropyl)methyl)-4-fluoro-1H-benzo[d]imidazole-6-carboxylic acid]: in data set [1] (setting [3]), the EC50 worked out at 1.71 nM. Also, the “Predicted Hepatic Clearance (Pred. Cl.)” value in data set [2] was 2.5 mL/min/kg.

Turning to `N#Cc1ccc(COc2nccc(-c3cc(F)c(Cc4nc5ccc(C(=O)O)nc5n4CC4(CF)CC4)c(F)c3)n2)c(F)c1` [Example 298, 2-(4-(2-((4-cyano-2-fluorobenzyl)oxy)pyrimidin-4-yl)-2,6-difluorobenzyl)-3-((1-(fluoromethyl)cyclopropyl)methyl)-3H-imidazo[4,5-b]pyridine-5-carboxylic acid], the EC50 in data set [1] (setting [3]) was found to be 4.75 nM. Besides, the “Predicted Hepatic Clearance (Pred. Cl.)” value in data set [2] is below 1.83 mL/min/kg.

As for `N#Cc1ccc(COc2nccc(-c3ccc(Cc4nc5c(F)cc(C(=O)O)cc5n4CC4(CF)CC4)cc3F)n2)c(F)c1` [Example 299, 2-(4-(2-((4-cyano-2-fluorobenzyl)oxy)pyrimidin-4-yl)-3-fluorobenzyl)-4-fluoro-1-((1-(fluoromethyl)cyclopropyl)methyl)-1H-benzo[d]imidazole-6-carboxylic acid], in data set [1] (setting [3]), the EC50 came to 0.4 nM. Further, in data set [2], the “Predicted Hepatic Clearance (Pred. Cl.)” value is 5.17 mL/min/kg.

Take `N#CCC1(Cn2c(Cc3ccc(-c4ccnc(OCc5ccc(C#N)cc5F)n4)c(F)c3)nc3ccc(C(=O)O)nc32)CC1` [Example 300, 2-(4-(2-((4-cyano-2-fluorobenzyl)oxy)pyrimidin-4-yl)-3-fluorobenzyl)-3-((1-(cyanomethyl)cyclopropyl)methyl)-3H-imidazo[4,5-b]pyridine-5-carboxylic acid]: the EC50 in data set [1] (setting [3]) was 0.68 nM. Moreover, the “Predicted Hepatic Clearance (Pred. Cl.)” value in data set [2] is below 1.83 mL/min/kg.

As for `COCCn1c(Cc2cc(F)c(-c3cccc(OCc4ccc(C#N)cc4F)n3)cc2F)nc2c(F)cc(C(=O)O)cc21` [Example 301, 2-(4-(6-((4-cyano-2-fluorobenzyl)oxy)pyridin-2-yl)-2,5-difluorobenzyl)-4-fluoro-1-(2-methoxyethyl)-1H-benzo[d]imidazole-6-carboxylic acid], it took 0.73 nM to reach a half-maximal effect in data set [1] (EC50 (nM)) (EC50). The “Predicted Hepatic Clearance (Pred. Cl.)” value in data set [2] is 5.05 mL/min/kg.

Consider `N#Cc1ccc(COc2nccc(-c3ccc(Cc4nc5ccc(C(=O)O)nc5n4CC4(CF)CC4)cc3F)n2)c(F)c1` [Example 302, 2-(4-(2-((4-cyano-2-fluorobenzyl)oxy)pyrimidin-4-yl)-3-fluorobenzyl)-3-((1-(fluoromethyl)cyclopropyl)methyl)-3H-imidazo[4,5-b]pyridine-5-carboxylic acid], for which, in data set [1] (setting [3]), the EC50 is 1.21 nM. Moreover, the “Predicted Hepatic Clearance (Pred. Cl.)” value in data set [2] was 2.67 mL/min/kg.

Consider `N#CCC1(Cn2c(Cc3ccc(-c4ccnc(OCc5ccc(C#N)cc5F)n4)c(F)c3)nc3c(F)cc(C(=O)O)cc32)CC1` [Example 303, 2-(4-(2-((4-cyano-2-fluorobenzyl)oxy)pyrimidin-4-yl)-3-fluorobenzyl)-1-((1-(cyanomethyl)cyclopropyl)methyl)-4-fluoro-1H-benzo[d]imidazole-6-carboxylic acid], for which the EC50 in data set [1] (setting [3]) is 1.33 nM. Besides, in data set [2], the “Predicted Hepatic Clearance (Pred. Cl.)” value was 4 mL/min/kg.

For the molecule `COCCn1c(Cc2cc(F)c(-c3cccc(OCc4ccc(C#N)cc4F)n3)cc2Cl)nc2ccc(C(=O)O)cc21` [Example 304, 2-(2-chloro-4-(6-((4-cyano-2-fluorobenzyl)oxy)pyridin-2-yl)-5-fluorobenzyl)-1-(2-methoxyethyl)-1H-benzo[d]imidazole-6-carboxylic acid], the EC50 in data set [1] (setting [3]) is 0.5 nM. Besides, the “Predicted Hepatic Clearance (Pred. Cl.)” value in data set [2] was 5.33 mL/min/kg.

As for `N#CCCn1c(Cc2cc(F)c(-c3cccc(OCc4ccc(C#N)cc4F)n3)cc2F)nc2ccc(C(=O)O)cc21` [Example 305, 2-(4-(6-((4-cyano-2-fluorobenzyl)oxy)pyridin-2-yl)-2,5-difluorobenzyl)-1-(2-cyanoethyl)-1H-benzo[d]imidazole-6-carboxylic acid], in data set [1] (setting [3]), the EC50 came out at 1.25 nM. Also, in data set [2], the “Predicted Hepatic Clearance (Pred. Cl.)” value was 4.67 mL/min/kg.

In the case of `N#Cc1ccc(COc2cccc(-c3cc(F)c(Cc4nc5ccc(C(=O)O)cc5n4CC4COC4)cc3F)n2)c(F)c1` [Example 307, 2-(4-(6-((4-cyano-2-fluorobenzyl)oxy)pyridin-2-yl)-2,5-difluorobenzyl)-1-(oxetan-3-ylmethyl)-1H-benzo[d]imidazole-6-carboxylic acid], in data set [1] (setting [3]), the EC50 was 7.96 nM. Also, in data set [2], the “Predicted Hepatic Clearance (Pred. Cl.)” value was 5.33 mL/min/kg.

Take `N#Cc1ccc(COc2cccc(-c3cc(F)c(Cc4nc5ccc(C(=O)O)cc5n4CC4(C(F)F)COC4)cc3F)n2)c(F)c1` [Example 308, 2-(4-(6-((4-cyano-2-fluorobenzyl)oxy)pyridin-2-yl)-2,5-difluorobenzyl)-1-((3-(difluoromethyl)oxetan-3-yl)methyl)-1H-benzo[d]imidazole-6-carboxylic acid]: in data set [1] (setting [3]), the EC50 is 1.26 nM. In addition, in data set [2], the “Predicted Hepatic Clearance (Pred. Cl.)” value is 5.83 mL/min/kg.

Take `COCCn1c(Cc2cc(F)c(-c3cccc(OCc4ccc(C#N)cc4F)n3)cc2F)nc2ccc(C(=O)O)c(F)c21` [Example 309, 2-(4-(6-((4-cyano-2-fluorobenzyl)oxy)pyridin-2-yl)-2,5-difluorobenzyl)-7-fluoro-1-(2-methoxyethyl)-1H-benzo[d]imidazole-6-carboxylic acid]: the EC50 in data set [1] (setting [3]) is 2.16 nM. In addition, the “Predicted Hepatic Clearance (Pred. Cl.)” value in data set [2] was 5.17 mL/min/kg.

For `N#Cc1ccc(COc2cccc(-c3cc(F)c(Cc4nc5ccc(C(=O)O)cc5n4Cc4cnccn4)cc3F)n2)c(F)c1` [Example 310, 2-(4-(6-((4-cyano-2-fluorobenzyl)oxy)pyridin-2-yl)-2,5-difluorobenzyl)-1-(pyrazin-2-ylmethyl)-1H-benzo[d]imidazole-6-carboxylic acid], the EC50 in data set [1] (setting [3]) was found to be 16.3 nM. For the same molecule, in data set [2], the “Predicted Hepatic Clearance (Pred. Cl.)” value was 6.33 mL/min/kg.

In the case of `N#Cc1ccc(COc2cccc(-c3cc(F)c(Cc4nc5ccc(C(=O)O)cc5n4Cc4ccccn4)cc3F)n2)c(F)c1` [Example 311, 2-(4-(6-((4-cyano-2-fluorobenzyl)oxy)pyridin-2-yl)-2,5-difluorobenzyl)-1-(pyridin-2-ylmethyl)-1H-benzo[d]imidazole-6-carboxylic acid], in data set [1] (setting [3]), the 50% effective concentration (EC50) is 95.6 nM. The “Predicted Hepatic Clearance (Pred. Cl.)” value in data set [2] is 7 mL/min/kg.

Consider `N#Cc1ccc(COc2cccc(-c3cc(F)c(Cc4nc5ccc(C(=O)O)cc5n4Cc4ccc[nH]c4=O)cc3F)n2)c(F)c1` [Example 312, 2-(4-(6-((4-cyano-2-fluorobenzyl)oxy)pyridin-2-yl)-2,5-difluorobenzyl)-1-((2-oxo-1,2-dihydropyridin-3-yl)methyl)-1H-benzo[d]imidazole-6-carboxylic acid], for which, in data set [1] (setting [3]), the EC50 came out at 250 nM. The “Predicted Hepatic Clearance (Pred. Cl.)” value in data set [2] was 4.67 mL/min/kg.

As to `N#Cc1ccc(COc2cccc(-c3ccc(Cc4nc5ccc(C(=O)O)cc5n4CC4(n5cncn5)CC4)c(F)c3)n2)c(F)c1` [Example 313, 1-((1-(1H-1,2,4-triazol-1-yl)cyclopropyl)methyl)-2-(4-(6-((4-cyano-2-fluorobenzyl)oxy)pyridin-2-yl)-2-fluorobenzyl)-1H-benzo[d]imidazole-6-carboxylic acid], the concentration for a half-maximal effect (EC50) in data set [1] (setting [3]) was 3.25 nM. The “Predicted Hepatic Clearance (Pred. Cl.)” value in data set [2] was 7.17 mL/min/kg.

`COCCn1c(Cc2cc(Cl)c(-c3cccc(OCc4ccc(C#N)cc4F)n3)cc2F)nc2ccc(C(=O)O)cc21` [Example 314, 2-(5-chloro-4-(6-((4-cyano-2-fluorobenzyl)oxy)pyridin-2-yl)-2-fluorobenzyl)-1-(2-methoxyethyl)-1H-benzo[d]imidazole-6-carboxylic acid]: in data set [1] (setting [3]), the EC50 was 12.5 nM. For the same molecule, the “Predicted Hepatic Clearance (Pred. Cl.)” value in data set [2] was 5 mL/min/kg.

As for `N#Cc1ccc(COc2cccc(-c3ccc(Cc4nc5c(F)cc(C(=O)O)cc5n4CC4(C#N)CC4)c(F)c3)n2)c(F)c1` [Example 315, 2-(4-(6-((4-cyano-2-fluorobenzyl)oxy)pyridin-2-yl)-2-fluorobenzyl)-1-((l-cyanocyclopropyl)methyl)-4-fluoro-1H-benzo[d]imidazole-6-carboxylic acid], in data set [1] (setting [3]), the EC50 was found to be 2.08 nM. Also, in data set [2], the “Predicted Hepatic Clearance (Pred. Cl.)” value is 5.67 mL/min/kg.

For the molecule `N#Cc1ccc(COc2cccc(-c3ccc(Cc4nc5ccc(C(=O)O)cc5n4CC4(O)COC4)c(F)c3)n2)c(F)c1` [Example 316, 2-(4-(6-((4-cyano-2-fluorobenzyl)oxy)pyridin-2-yl)-2-fluorobenzyl)-1-((3-hydroxyoxetan-3-yl)methyl)-1H-benzo[d]imidazole-6-carboxylic acid], the EC50 in data set [1] (setting [3]) worked out at 14 nM. In addition, in data set [2], the “Predicted Hepatic Clearance (Pred. Cl.)” value is 4.67 mL/min/kg.

As for `N#Cc1ccc(COc2nccc(-c3cc(F)c(Cc4nc5ccc(C(=O)O)cc5n4CC4(CF)CC4)c(F)c3)n2)c(F)c1` [Example 317, 2-(4-(2-((4-cyano-2-fluorobenzyl)oxy)pyrimidin-4-yl)-2,6-difluorobenzyl)-1-((1-(fluoromethyl)cyclopropyl)methyl)-1H-benzo[d]imidazole-6-carboxylic acid], in data set [1] (setting [3]), the EC50 is 1.05 nM. The “Predicted Hepatic Clearance (Pred. Cl.)” value in data set [2] was 2.67 mL/min/kg.

As for `O=C(O)c1ccc2nc(Cc3ccc(-c4ccnc(OCc5ccc(Cl)cc5F)n4)c(F)c3)n(CC3(CF)CC3)c2n1` [Example 318, 2-(4-(2-((4-chloro-2-fluorobenzyl)oxy)pyrimidin-4-yl)-3-fluorobenzyl)-3-((1-(fluoromethyl)cyclopropyl)methyl)-3H-imidazo[4,5-b]pyridine-5-carboxylic acid], in data set [1] (setting [3]), the EC50 amounted to 1.07 nM. The “Predicted Hepatic Clearance (Pred. Cl.)” value in data set [2] was below 1.83 mL/min/kg.
